# Reference: PubChem BioAssay AID328 (DTP/NCI, 2004)
# Several values for one entry are separate records, joined by “and”; a condition that tells them apart may be missing. Identical values can stand only once. Inconclusive results and toxic doses are left out.
# System: BDF1 mice, P388 leukemia ip, median survival T/C
# Test: NCI In Vivo Anticancer Drug Screen. Data for tumor model P388 Leukemia (intraperitoneal) in B6D2F1 (BDF1) mice
# Conditions: endpoint: median survival time, higher = longer survival
# How it was run: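 Steps: implant the tumour, treat one group with compound and another with vehicle, record survival, then divide treated by control.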
# [1] = dose: 50.0 mg/kg/injection, schedule: Q01DX009 (ip), vehicle: saline with Tween-80
compound,measurement,setting,value
CCC1C2CC3C4N(C)c5ccc(Br)cc5C45CC(C2C5O)[N+]3(CC(O)CN2CCCCC2)C1O (stereo not drawn),T/C,"dose: 12.5 mg/kg/injection, schedule: Q01DX009 (ip), vehicle: saline",106 % of control
same,T/C,"dose: 25.0 mg/kg/injection, schedule: Q01DX009 (ip), vehicle: saline",115 % of control
same,T/C,"dose: 50.0 mg/kg/injection, schedule: Q01DX009 (ip), vehicle: saline",89 % of control and 93 % of control
O=[N+]([O-])c1ccc(S(=O)(=O)Oc2ccccc2)cc1,T/C,[1],105 % of control
same,T/C,"dose: 50.0 mg/kg/injection, schedule: Q04DX003 (ip), vehicle: Klucel (hydroxypropylcellulose) (HPC)",100 % of control
same,T/C,"dose: 100.0 mg/kg/injection, schedule: Q01DX009 (ip), vehicle: saline with Tween-80",100 % of control
same,T/C,"dose: 100.0 mg/kg/injection, schedule: Q04DX003 (ip), vehicle: Klucel (hydroxypropylcellulose) (HPC)",105 % of control
same,T/C,"dose: 200.0 mg/kg/injection, schedule: Q01DX009 (ip), vehicle: saline with Tween-80",105 % of control
same,T/C,"dose: 200.0 mg/kg/injection, schedule: Q04DX003 (ip), vehicle: Klucel (hydroxypropylcellulose) (HPC)",105 % of control
CCCOC1=C(N2CC2)C(=O)C(OCCC)=C(N2CC2)C1=O,T/C,"dose: 2.2 mg/kg/injection, schedule: Q04DX003 (ip), vehicle: saline with Tween-80",117 % of control
same,T/C,"dose: 5.55 mg/kg/injection, schedule: Q04DX003 (ip), vehicle: saline with Tween-80",200 % of control
same,T/C,"dose: 7.5 mg/kg/injection, schedule: Q04DX003 (ip), vehicle: saline with Tween-80",165 % of control
same,T/C,"dose: 8.33 mg/kg/injection, schedule: Q04DX003 (ip), vehicle: saline with Tween-80",163 % of control and 200 % of control
same,T/C,"dose: 12.5 mg/kg/injection, schedule: Q04DX003 (ip), vehicle: saline with Tween-80",186 % of control and 200 % of control and 218 % of control
same,T/C,"dose: 18.7 mg/kg/injection, schedule: Q04DX003 (ip), vehicle: saline with Tween-80",245 % of control and 260 % of control
same,T/C,"dose: 25.0 mg/kg/injection, schedule: Q04DX003 (ip), vehicle: saline with Tween-80",163 % of control
NC(N)=Nc1ccc(C(=O)O)cc1,T/C,"dose: 50.0 mg/kg/injection, schedule: Q04DX003 (ip), vehicle: saline with Tween-80",104 % of control
same,T/C,"dose: 100.0 mg/kg/injection, schedule: Q04DX003 (ip), vehicle: saline with Tween-80",100 % of control
same,T/C,"dose: 200.0 mg/kg/injection, schedule: Q04DX003 (ip), vehicle: saline with Tween-80",100 % of control
C[CH2][Sn]([c]1ccccc1)([c]1ccccc1)[c]1ccccc1,T/C,"dose: 12.5 mg/kg/injection, schedule: Q01DX009 (ip), vehicle: saline with Tween-80",104 % of control
same,T/C,"dose: 25.0 mg/kg/injection, schedule: Q01DX009 (ip), vehicle: saline with Tween-80",109 % of control
same,T/C,[1],104 % of control
C[C@]12C=CC(=O)C=C1CC[C@@H]1[C@@H]2[C@@H](O)C[C@@]2(C)[C@H]1CC[C@]2(O)C(=O)CO,T/C,"dose: 12.5 mg/kg/injection, schedule: Q01DX010 (sc), vehicle: steriod suspending solution",109 % of control and 120 % of control
same,T/C,"dose: 25.0 mg/kg/injection, schedule: Q01DX010 (sc), vehicle: steriod suspending solution",109 % of control and 110 % of control
same,T/C,"dose: 50.0 mg/kg/injection, schedule: Q01DX010 (sc), vehicle: steriod suspending solution",113 % of control and 120 % of control
same,T/C,"dose: 100.0 mg/kg/injection, schedule: Q01DX010 (sc), vehicle: steriod suspending solution",118 % of control and 120 % of control
O=C(NP(=O)(N1CC1)N1CC1)c1cc(I)ccc1I,T/C,"dose: 1.0 mg/kg/injection, schedule: Q01DX001 (oral), vehicle: saline",102 % of control
same,T/C,"dose: 1.0 mg/kg/injection, schedule: Q01DX009 (ip), vehicle: saline with Tween-80",110 % of control
same,T/C,"dose: 1.0 mg/kg/injection, schedule: Q01DX009 (ip), vehicle: saline",104 % of control and 202 % of control
same,T/C,"dose: 2.0 mg/kg/injection, schedule: Q01DX001 (oral), vehicle: saline",100 % of control
same,T/C,"dose: 2.0 mg/kg/injection, schedule: Q01DX009 (ip), vehicle: saline with Tween-80",101 % of control
same,T/C,"dose: 4.0 mg/kg/injection, schedule: Q01DX001 (oral), vehicle: saline",101 % of control
same,T/C,"dose: 4.0 mg/kg/injection, schedule: Q01DX009 (ip), vehicle: saline with Tween-80",105 % of control
same,T/C,"dose: 4.0 mg/kg/injection, schedule: Q01DX009 (ip), vehicle: saline",96 % of control and 222 % of control
same,T/C,"dose: 8.0 mg/kg/injection, schedule: Q01DX001 (oral), vehicle: saline",113 % of control
same,T/C,"dose: 8.0 mg/kg/injection, schedule: Q01DX009 (ip), vehicle: saline",232 % of control and 150 % of control
same,T/C,"dose: 16.0 mg/kg/injection, schedule: Q01DX001 (oral), vehicle: saline",113 % of control
same,T/C,"dose: 16.0 mg/kg/injection, schedule: Q01DX009 (ip), vehicle: saline with Tween-80",214 % of control
same,T/C,"dose: 16.0 mg/kg/injection, schedule: Q01DX009 (ip), vehicle: saline",177 % of control and 191 % of control
same,T/C,"dose: 32.0 mg/kg/injection, schedule: Q01DX009 (ip), vehicle: saline with Tween-80",177 % of control
same,T/C,"dose: 32.0 mg/kg/injection, schedule: Q01DX009 (ip), vehicle: saline",93 % of control and 207 % of control
same,T/C,"dose: 64.0 mg/kg/injection, schedule: Q01DX001 (oral), vehicle: saline",150 % of control
same,T/C,"dose: 64.0 mg/kg/injection, schedule: Q01DX009 (ip), vehicle: saline with Tween-80",112 % of control
same,T/C,"dose: 128.0 mg/kg/injection, schedule: Q01DX009 (ip), vehicle: saline",123 % of control
same,T/C,"dose: 256.0 mg/kg/injection, schedule: Q01DX001 (oral), vehicle: saline",161 % of control
CCOC(=O)c1cc[nH]c1CC(=O)NCc1ccccc1,T/C,"dose: 100.0 mg/kg/injection, schedule: Q01DX001 (ip), vehicle: saline with Tween-80",97 % of control
same,T/C,"dose: 200.0 mg/kg/injection, schedule: Q01DX001 (ip), vehicle: saline with Tween-80",118 % of control
same,T/C,"dose: 400.0 mg/kg/injection, schedule: Q01DX001 (ip), vehicle: saline with Tween-80",103 % of control
O=C1c2ccccc2C(=O)c2c(NCCCCCO)ccc(NCCCCCO)c21,T/C,"dose: 25.0 mg/kg/injection, schedule: Q01DX009 (ip), vehicle: other",88 % of control
same,T/C,"dose: 100.0 mg/kg/injection, schedule: Q01DX009 (ip), vehicle: other",88 % of control
Clc1c(Cl)c(C[P+](CCP(c2ccccc2)c2ccccc2)(c2ccccc2)c2ccccc2)c(Cl)c(Cl)c1C[P+](CCP(c1ccccc1)c1ccccc1)(c1ccccc1)c1ccccc1,T/C,"dose: 3.13 mg/kg/injection, schedule: Q01DX009 (ip), vehicle: suspension in saline",114 % of control
CC(=O)Nc1onc(C)c1[N+](=O)[O-],T/C,"dose: 100.0 mg/kg/injection, schedule: Q01DX009 (ip), vehicle: saline",100 % of control
same,T/C,"dose: 100.0 mg/kg/injection, schedule: Q04DX003 (ip), vehicle: saline",104 % of control
same,T/C,"dose: 200.0 mg/kg/injection, schedule: Q01DX009 (ip), vehicle: saline",100 % of control
same,T/C,"dose: 200.0 mg/kg/injection, schedule: Q04DX003 (ip), vehicle: saline",109 % of control
same,T/C,"dose: 400.0 mg/kg/injection, schedule: Q01DX009 (ip), vehicle: saline",104 % of control
same,T/C,"dose: 400.0 mg/kg/injection, schedule: Q04DX003 (ip), vehicle: saline",109 % of control
C[n+]1c(-c2ccc(Cl)c(Cl)c2)c2cc(N)ccc2c2ccccc21,T/C,"dose: 0.78 mg/kg/injection, schedule: Q01DX009 (ip), vehicle: water",107 % of control
same,T/C,"dose: 0.78 mg/kg/injection, schedule: Q04DX003 (ip), vehicle: water",100 % of control
same,T/C,"dose: 1.56 mg/kg/injection, schedule: Q01DX009 (ip), vehicle: water",114 % of control
same,T/C,"dose: 1.56 mg/kg/injection, schedule: Q04DX003 (ip), vehicle: water",100 % of control
same,T/C,"dose: 3.12 mg/kg/injection, schedule: Q04DX003 (ip), vehicle: water",106 % of control
same,T/C,"dose: 6.25 mg/kg/injection, schedule: Q04DX003 (ip), vehicle: water",106 % of control
same,T/C,"dose: 12.5 mg/kg/injection, schedule: Q01DX009 (ip), vehicle: water",109 % of control
FC(F)(F)c1nc2nc(Cl)c(Cl)nc2s1,T/C,"dose: 0.78 mg/kg/injection, schedule: Q04DX003 (ip), vehicle: other",104 % of control
same,T/C,"dose: 1.56 mg/kg/injection, schedule: Q01DX009 (ip), vehicle: other",99 % of control
same,T/C,"dose: 1.56 mg/kg/injection, schedule: Q04DX003 (ip), vehicle: other",117 % of control
same,T/C,"dose: 3.12 mg/kg/injection, schedule: Q01DX009 (ip), vehicle: other",90 % of control
same,T/C,"dose: 3.12 mg/kg/injection, schedule: Q04DX003 (ip), vehicle: other",98 % of control
same,T/C,"dose: 6.25 mg/kg/injection, schedule: Q01DX009 (ip), vehicle: other",90 % of control
same,T/C,"dose: 6.25 mg/kg/injection, schedule: Q04DX003 (ip), vehicle: other",121 % of control
same,T/C,"dose: 12.5 mg/kg/injection, schedule: Q01DX009 (ip), vehicle: other",99 % of control
same,T/C,"dose: 12.5 mg/kg/injection, schedule: Q04DX003 (ip), vehicle: other",111 % of control
